Values of other authors, collected in publication PMC12503259, “Establishment of an in vivo analytical method for detecting total anti-UFH activity and pharmacokinetic study in PS and R15 in rats” (PLOS One, 2025).

Experiments:
[1] = clinical practice; cited from earlier work
Description: In clinical practice, PS is typically administered at 1.2 times the anti-heparin activity of circulating UFH to achieve complete neutralization [40, 41].

[2] = UFH 300 U·kg^-1 in rats, preliminary experimental data; cited from earlier work
Description: A dose of 300 U· kg^-1 dose of UFH is considered clinically effective. […] Accordingly, we performed pharmacokinetic studies of PS at 300 U kg^-1, and of R15 at 300, 900, and 2700 U· kg^-1 to determine whether R15 follows linear or nonlinear pharmacokinetics.

Unfractionated heparin [UFH]
T1/2 [1]: 1 to 2 h | duration of heparinization [2]: at least 4 hours
